Molecular target: T1, human CH24H (Homo sapiens, UniProt Q9Y6A2)
T1 construct: Using Full-Length Mammalian Gene Collection No. 4819975 (Invitrogen) as a template; made in house; host or cells: FreeStyle 293-F cells, transient transfection with pcDNA3.1(+)/hCH24H; lysate supernatant, not purified
Experiment: Measurement of CH24H inhibitory activity (24-HC produced from [14C] cholesterol by human CH24H lysate)
Type: biochemical
Details: 1 μM test compound, [14C] cholesterol 15 μM, 37° C. for 5 hr, read-out: Inhibitory Rate in 1 μM (%)
Experimental: The expression of human CH24H was performed using FreeStyle 293 Expression System (Invitrogen). […] After transfection, the cells were cultured at 37° C., 8% CO2 with shaking at 125 rpm for 2 days. The cells were collected by centrifugation, and suspended in a suspension buffer (100 mM potassium phosphate (pH 7.4), 0.1 mM EDTA, 1 mM DTT, 20% Glycerol). The suspended product was disrupted by a polytron homogenizer (manufactured by Kinematica), and centrifuged at 9000×g for 10 min, and the supernatant was collected. The collected supernatant was cryopreserved (−80° C.) as a human CH24H lysate standard product.
For the measurement of CH24H inhibitory activity, using the human CH24H lysate prepared in Experimental Example 2, the amount of 24-HC produced from cholesterol by catalytic activity of CH24H was measured in the presence of a test compound, and compared with that measured in the absence of the test compound. That is, a test compound solution at various concentrations was mixed with a reaction buffer (50 mM potassium phosphate containing 0.1% BSA and Complete, EDTA-free, pH 7.4) and human CH24H lysate. Then, [^14C] cholesterol (53 mCi/mmol specific activity, 15 μM) was added, and CH24H reaction was performed at 37° C. for 5 hr. After completion of the reaction, a quenching solution consisting of chloroform/methanol/distilled water (2:2:1 v/v) was added, and the resulting 24-HC was extracted by shaking. The extract was applied to silica gel thin layer chromatography (ethyl acetate:toluene=4:6), and the obtained ^14C-24HC fraction was measured with BAS2500 (Fujifilm Corporation).
The inhibitory rate (%) was calculated from the ratio of radioactivity in the presence of a test compound relative to the radioactivity in the absence of the test compound.

T1 sequence (Q9Y6A2 whole entry): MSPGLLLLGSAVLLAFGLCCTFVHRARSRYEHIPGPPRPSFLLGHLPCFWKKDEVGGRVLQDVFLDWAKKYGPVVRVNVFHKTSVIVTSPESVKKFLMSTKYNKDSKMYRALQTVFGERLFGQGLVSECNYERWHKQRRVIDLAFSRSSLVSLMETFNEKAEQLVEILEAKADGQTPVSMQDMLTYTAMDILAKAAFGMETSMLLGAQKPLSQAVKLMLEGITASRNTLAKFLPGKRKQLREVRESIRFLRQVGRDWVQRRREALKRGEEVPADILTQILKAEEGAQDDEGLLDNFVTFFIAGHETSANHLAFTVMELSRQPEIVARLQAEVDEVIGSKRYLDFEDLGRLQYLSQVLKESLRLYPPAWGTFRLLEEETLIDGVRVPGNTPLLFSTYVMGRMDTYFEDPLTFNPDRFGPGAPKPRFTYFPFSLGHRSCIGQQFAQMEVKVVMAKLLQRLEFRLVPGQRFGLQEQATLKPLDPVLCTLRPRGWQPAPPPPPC

inhibition at 1 µM | Structure (SMILES)
80% | Cc1cnc(-c2ccncc2N2CCC(C(=O)N(C)C)CC2)o1 [Example 2, N,N-dimethyl-1-(4-(5-methyl-1,3-oxazol-2-yl)pyridin-3-yl)piperidine-4-carboxamide]
90% | CNC(=O)C1CCN(c2cnccc2-n2cc(C(F)(F)F)cn2)CC1 [Example 12, N-methyl-1-(4-(4-(trifluoromethyl)-1H-pyrazol-1-yl)pyridin-3-yl)piperidine-4-carboxamide]
85% | CN(C)C(=O)C1CCN(c2cnccc2-c2nc3ccccc3s2)CC1 [Example 21, 1-(4-(1,3-benzothiazol-2-yl)pyridin-3-yl)-N,N-dimethylpiperidine-4-carboxamide]
96% | O=C(NC1CCOCC1)C1CCN(c2cnccc2-n2cc(Cl)cn2)CC1 [Example 24, 1-(4-(4-chloro-1H-pyrazol-1-yl)pyridin-3-yl)-N-(tetrahydro-2H-pyran-4-yl)piperidine-4-carboxamide]
97% | CC1CCCN1C(=O)C1CCN(c2cnccc2-n2cc(Cl)cn2)CC1 (stereo not drawn) [Example 25, (1-(4-(4-chloro-1H-pyrazol-1-yl)pyridin-3-yl)piperidin-4-yl)(2-methylpyrrolidin-1-yl)methanone]
98% | CC1(C)CCCN1C(=O)C1CCN(c2cnccc2-n2cc(Cl)cn2)CC1 [Example 26, (1-(4-(4-chloro-1H-pyrazol-1-yl)pyridin-3-yl)piperidin-4-yl)(2,2-dimethylpyrrolidin-1-yl)methanone]
97% | CC(C)C1CCCN1C(=O)C1CCN(c2cnccc2-n2cc(Cl)cn2)CC1 (stereo not drawn) [Example 29, (1-(4-(4-chloro-1H-pyrazol-1-yl)pyridin-3-yl)piperidin-4-yl)(2-isopropylpyrrolidin-1-yl)methanone]
97% | O=C(C1CCN(c2cnccc2-n2cc(Cl)cn2)CC1)N1CCS(=O)(=O)CC1 [Example 30, (1-(4-(4-chloro-1H-pyrazol-1-yl)pyridin-3-yl)piperidin-4-yl)(1,1-dioxidothiomorpholin-4-yl)methanone]
97% | CC1(CNC(=O)C2CCN(c3cnccc3-n3cc(Cl)cn3)CC2)COC1 [Example 31, 1-(4-(4-chloro-1H-pyrazol-1-yl)pyridin-3-yl)-N-((3-methyloxetan-3-yl)methyl)piperidine-4-carboxamide]
98% | O=C(NC1CCCC1)C1CCN(c2cnccc2-n2cc(Cl)cn2)CC1(F)F (stereo not drawn) [Example 38, 1-(4-(4-chloro-1H-pyrazol-1-yl)pyridin-3-yl)-N-cyclopentyl-3,3-difluoropiperidine-4-carboxamide]
99% | CN(C(=O)C1CCN(c2cnccc2-n2cc(Cl)cn2)CC1)C1CCOCC1 [Example 54, 1-(4-(4-chloro-1H-pyrazol-1-yl)pyridin-3-yl)-N-methyl-N-(tetrahydro-2H-pyran-4-yl)piperidine-4-carboxamide]
96% | CN(C(=O)C1CCN(c2cnccc2-n2cc(Cl)cn2)CC1)C1CC1 [Example 58, 1-(4-(4-chloro-1H-pyrazol-1-yl)pyridin-3-yl)-N-cyclopropyl-N-methylpiperidine-4-carboxamide]
97% | Cc1cnn(-c2ccncc2N2CCC(C(=O)Nc3ccccc3)CC2)c1 [Example 73, 1-(4-(4-methyl-1H-pyrazol-1-yl)pyridin-3-yl)-N-phenylpiperidine-4-carboxamide]
93% | O=C(NC1CCOCC1)C1CCN(c2cnccc2-n2cc(Cl)cn2)CC1(F)F (stereo not drawn) [Example 79, 1-(4-(4-chloro-1H-pyrazol-1-yl)pyridin-3-yl)-3,3-difluoro-N-(tetrahydro-2H-pyran-4-yl)piperidine-4-carboxamide]
97% | Cc1cnn(-c2ccncc2N2CCC3(CCN(C)C3=O)CC2)c1 [Example 82, 2-methyl-8-(4-(4-methyl-1H-pyrazol-1-yl)pyridin-3-yl)-2,8-diazaspiro[4.5]decan-1-one]
74% | CN(C)C(=O)C1CCN(c2cnccc2-n2cc(C#N)cn2)CC1 [Example 83, 1-(4-(4-cyano-1H-pyrazol-1-yl)pyridin-3-yl)-N,N-dimethylpiperidine-4-carboxamide]

inhibition at 1 µM | Structure (SMILES)
98% | Cc1cnn(-c2ccncc2N2CCC(C(=O)N(C)C3CC3)CC2)c1 [Example 86, N-cyclopropyl-N-methyl-1-(4-(4-methyl-1H-pyrazol-1-yl)pyridin-3-yl)piperidine-4-carboxamide]
98% | Cc1nnc(-c2ccncc2N2CCC(C(=O)N3CCC[C@@H]3C#N)CC2)s1 [Example 87, (2R)-1-((1-(4-(5-methyl-1,3,4-thiadiazol-2-yl)pyridin-3-yl)piperidin-4-yl)carbonyl)pyrrolidine-2-carbonitrile]
86% | Cc1cnn(-c2ccncc2N2CCC(C(=O)N3CCC[C@H]3C(N)=O)CC2)c1 [Example 114, 1-((1-(4-(4-methyl-1H-pyrazol-1-yl)pyridin-3-yl)piperidin-4-yl)carbonyl)-L-prolinamide]
85% | NC(=O)[C@@H]1CC(F)(F)CN1C(=O)C1CCN(c2cnccc2-n2cc(Cl)cn2)CC1 [Example 117, 1-((1-(4-(4-chloro-1H-pyrazol-1-yl)pyridin-3-yl)piperidin-4-yl)carbonyl)-4,4-difluoro-L-prolinamide]
93% | N#C[C@@H]1CC(F)(F)CN1C(=O)C1CCN(c2cnccc2-n2cc(Cl)cn2)CC1 [Example 119, (2S)-1-((1-(4-(4-chloro-1H-pyrazol-1-yl)pyridin-3-yl)piperidin-4-yl)carbonyl)-4,4-difluoropyrrolidine-2-carbonitrile]
80% | Cc1cnn(-c2ccncc2N2CCC(C(=O)N3CC(F)(F)C[C@H]3C#N)CC2)c1 [Example 121, (2S)-4,4-difluoro-1-((1-(4-(4-methyl-1H-pyrazol-1-yl)pyridin-3-yl)piperidin-4-yl)carbonyl)pyrrolidine-2-carbonitrile]
97% | Cc1nnc(-c2ccncc2N2CCC(C(=O)N3CCC[C@]3(C)C#N)CC2)s1 [Example 128, (2R)-2-methyl-1-((1-(4-(5-methyl-1,3,4-thiadiazol-2-yl)pyridin-3-yl)piperidin-4-yl)carbonyl)pyrrolidine-2-carbonitrile]
87% | Cc1nnc(-c2ccncc2N2CCC(F)(C(=O)N3CCC[C@@H]3C#N)CC2)s1 [Example 131, (2R)-1-((4-fluoro-1-(4-(5-methyl-1,3,4-thiadiazol-2-yl)pyridin-3-yl)piperidin-4-yl)carbonyl)pyrrolidine-2-carbonitrile]
93% | CO[C@@H]1C[C@H](C#N)N(C(=O)C2CCN(c3cnccc3-n3cc(C)cn3)CC2)C1 [Example 138, (2R,4R)-4-methoxy-1-((1-(4-(4-methyl-1H-pyrazol-1-yl)pyridin-3-yl)piperidin-4-yl)carbonyl)pyrrolidine-2-carbonitrile]
98% | N#C[C@H]1CC(F)(F)CN1C(=O)C1CCN(c2cnccc2-c2ccccn2)CC1 [Example 143, (2R)-1-((1-(2,4′-bipyridin-3′-yl)piperidin-4-yl)carbonyl)-4,4-difluoropyrrolidine-2-carbonitrile]
98% | CO[C@H]1C[C@H](C#N)N(C(=O)C2CCN(c3cnccc3-n3cc(C)cn3)CC2)C1 [Example 144, (2R,4S)-4-methoxy-1-((1-(4-(4-methyl-1H-pyrazol-1-yl)pyridin-3-yl)piperidin-4-yl)carbonyl)pyrrolidine-2-carbonitrile]
92% | Cc1ccc(-c2ccncc2N2CCN(C(=O)CC3CC3)CC2)cc1 [Example 148, 2-cyclopropyl-1-(4-(4-(4-methylphenyl)pyridin-3-yl)piperazin-1-yl)ethanone]
90% | O=C(C1CC1)N1CCN(c2cnccc2-c2ccccc2)CC1 [Example 152, cyclopropyl(4-(4-phenylpyridin-3-yl)piperazin-1-yl)methanone]
85% | C[C@@H]1CN(c2cncnc2-c2ccccc2)CCN1C(=O)OCc1ccccc1 [Example 158, benzyl (2R)-2-methyl-4-(4-phenylpyrimidin-5-yl)piperazine-1-carboxylate]
56% | O=C(CC1CC1)N1C[C@@H]2C[C@H]1CN2c1cnccc1-c1ccccc1 [Example 161, 2-cyclopropyl-1-((1S,4S)-5-(4-phenylpyridin-3-yl)-2,5-diazabicyclo[2.2.1]hept-2-yl) ethanone]

Structure (SMILES) | inhibition at 1 µM
Cc1cnn(-c2ccncc2N2[C@@H]3CC[C@H]2C[C@H](C(=O)N(C)C)C3)c1 [Example 13, (3-exo)-N,N-dimethyl-8-(4-(4-methyl-1H-pyrazol-1-yl)pyridin-3-yl)-8-azabicyclo[3.2.1]octane-3-carboxamide] | 89%
O=C(C1CCN(c2cnccc2-n2cc(Cl)cn2)CC1)N1C2COCC1C2 [Example 35, (1-(4-(4-chloro-1H-pyrazol-1-yl)pyridin-3-yl)piperidin-4-yl)(3-oxa-6-azabicyclo[3.1.1]hept-6-yl)methanone] | 98%

— US9643957B2, “Heterocyclic compounds having cholesterol 24-hydroxylase activity” (TAKEDA PHARMACEUTICAL COMPANY LIMITED, priority 2012, dated 2017)
